Data from US5932575A, “Cardiac diseases improving agents” (Kureha Chemical Industry Co., Ltd., priority 1997, dated 1999).
Several values for one entry are separate records, joined by “and”; a condition that tells them apart may be missing. Equal entries are not always repeated.

Assays:
rats with renal diseases = settings: J. Pharmacol. Exp. Ther., 267: 657-663, 1993; cited from earlier work
[1] = system: angiotensin converting enzyme (ACE); settings: cited from earlier work
[2] = system: SHR rats, 3/4NPX cardiac hypertrophy model; assay: Inhibitory action of myocardial disturbance, Test 1 (3/4NPX cardiac hypertrophy model); type: in vivo
Procedure: SHR rats were divided into control group and test group each having three animals and both groups were treated with 3/4NPX, an experimental cardiac hypertrophy model prepared by 3/4 partial nephrectomy, after eight weeks. […] After the oral administration,kidneys and heart were excised and their weight was determined.

[3] = system: SHR rats, 3/4 NPX cardiac hypertrophy model; assay: Inhibitory action of myocardial disturbance, Test 2 (3/4 NPX cardiac hypertrophy model); type: in vivo
Procedure: Similarly, 3/4 NPX (cardiac hypertrophy model caused by 3/4 partial nephrectomy) was carried out at four weeks point in a control group and test group of SHR rats each having two and three animals. […] After 11 weeks, kidneys and heart were excised and their weight was determined.

ICR mice = assay: Acute toxicity (oral, single dose); type: in vivo; settings: 500 mg/kg oral once, 0.5% methylcellulose, after six days
Procedure: Female 5-week-old ICR mice were divided to groups each having five animals and acclimated for a week. Compound Nos. 1-3, 7, 8, 11 and 13 each was dissolved or dispersed in 0.5% methylcelulose aqueous solution, respectively, and orally administered once at a dose of 500 mg/kg, then the number of dead animals was counted after six days.

[4] = J. Clin. Pharmacol., 30:155-158, 1990
[5] = test group average, 20 mg/kg in drinking water four weeks, after 16 weeks
[6] = test group individual animals 1-3 in order, 20 mg/kg, after 16 weeks, 20 mg/kg
[7] = test group average, 20 mg/kg in drinking water, after 9 weeks
[8] = test group average, 20 mg/kg in drinking water, after 11 weeks
[9] = test group individual animals 1-3 in order, 20 mg/kg, after 9 weeks, 20 mg/kg
[10] = test group individual animals 1-3 in order, 20 mg/kg, after 11 weeks, 20 mg/kg

CCCN(Cc1ccc(-c2ccccc2-c2nnn[nH]2)cc1)c1ncccc1C(=O)O [A-81988, 2-[N-propyl-N-[[2'-(1H-tetrazol-5-yl)biphenyl-4-yl]methyl]amino]-pyridine-3-carboxylic acid]
hypotension (in words) (rats with renal diseases): accompanied with hypotension | proteinuria (in words) (rats with renal diseases): improvement in proteinuria

C[C@H](CS)C(=O)N1CCC[C@H]1C(=O)O [Captopril]
blood pressure (in words) [1, 4]: lower blood pressure | adverse reactions (in words) [1]: dry cough or adverse reaction of acute renal failure

CCCCC(=O)N(Cc1ccc(C(=O)OCCN(C)C)cc1)c1cc(C(=O)N2CCOCC2)ccc1N(C)C [Compound No. 1, 4-dimethylamino-3-N-[[[4-(2'-dimethylaminoethoxycarbonyl)phenyl]-methyl]valeramido]benzoic acid morpholide]
cardiac disturbance (in words) ([2]; Test 1, 20 mg/kg): inhibited cardiac disturbance | heart weight (in words) ([2]; Test 1, 20 mg/kg): decrease of heart weight due to cardiac hypertrophy | hypotension or kidney disturbance (in words) ([2]; Test 1, 20 mg/kg): without inducing hypotension or kidney disturbance | kidney weight (in words) ([2]; Test 1, 20 mg/kg): decreased inhibition of kidney weight increase | BP: blood pressure, average [2, 5]: 232 mmHg | BUN: blood urea nitrogen, average [2, 5]: 58 mg/dL | BW: body weight, average [2, 5]: 385 g | CCr: creatinine clearance, average [2, 5]: 0.76 mL/min | Cr: blood creatinine, average [2, 5]: 1.0 mg/dL | HW: heart weight, average [2, 5]: 1.493 g | KW: kidney weight, average [2, 5]: 1.451 g | RW: relative weight (heart), average [2, 5]: 0.388% | RW: relative weight (kidney), average [2, 5]: 0.376% | U-Pro.: urinary protein, average [2, 5]: 114.6 mg/day | BP: blood pressure, individual animal [2, 6]: 247 mmHg and 221 mmHg and 229 mmHg | BUN: blood urea nitrogen, individual animal [2, 6]: 55 mg/dL and 50 mg/dL and 70 mg/dL | BW: body weight, individual animal [2, 6]: 415 g and 346 g and 394 g | CCr: creatinine clearance, individual animal [2, 6]: 0.88 mL/min and 0.74 mL/min and 0.66 mL/min | Cr: blood creatinine, individual animal [2, 6]: 1.0 mg/dL and 0.9 mg/dL and 1.2 mg/dL | HW: heart weight, individual animal [2, 6]: 1.546 g and 1.326 g and 1.606 g | KW: kidney weight, individual animal [2, 6]: 1.515 g and 1.269 g and 1.568 g | RW: relative weight (heart), individual animal [2, 6]: 0.373% and 0.383% and 0.408% | RW: relative weight (kidney), individual animal [2, 6]: 0.365% and 0.366% and 0.398% | U-Pro.: urinary protein, individual animal [2, 6]: 119.8 mg/day and 50.5 mg/day and 174.6 mg/day | heart weight (in words) ([3]; Test 2, 20 mg/kg): declined heart weight | myocardial disturbance (in words) ([3]; Test 2, 20 mg/kg): inhibition of myocardial disturbance | urinary protein (in words) ([3]; Test 2, 20 mg/kg): significant decrease of urinary protein | BP: blood pressure, average [3, 7]: 214 mmHg | BUN: blood urea nitrogen, average [3, 7]: 44 mg/dL | BW: body weight, average [3, 7]: 258 g | CCr: creatinine clearance, average [3, 7]: 0.64 mL/min | Cr: blood creatinine, average [3, 7]: 0.7 mg/dL | U-Pro.: urinary protein, average [3, 7]: 43.3 mg/day | BP: blood pressure, average [3, 8]: 237 mmHg | BUN: blood urea nitrogen, average [3, 8]: 56 mg/dL | BW: body weight, average [3, 8]: 286 g | CCr: creatinine clearance, average [3, 8]: 0.67 mL/min | Cr: blood creatinine, average [3, 8]: 0.8 mg/dL | HW: heart weight, average [3, 8]: 1.078 g | KW: kidney weight, average [3, 8]: 1.350 g | RW: relative weight (heart), average [3, 8]: 0.378% | RW: relative weight (kidney), average [3, 8]: 0.473% | U-Pro.: urinary protein, average [3, 8]: 65.4 mg/day | BP: blood pressure, individual animal [3, 9]: 205 mmHg and 219 mmHg and 214 mmHg | BUN: blood urea nitrogen, individual animal [3, 9]: 41 mg/dL and 45 mg/dL and 47 mg/dL | BW: body weight, individual animal [3, 9]: 263 g and 254 g and 256 g | CCr: creatinine clearance, individual animal [3, 9]: 0.83 mL/min and 0.51 mL/min and 0.58 mL/min | Cr: blood creatinine, individual animal [3, 9]: 0.6 mg/dL and 0.8 mg/dL | U-Pro.: urinary protein, individual animal [3, 9]: 38.7 mg/day and 41.5 mg/day and 49.8 mg/day | BP: blood pressure, individual animal [3, 10]: 217 mmHg and 259 mmHg and 234 mmHg | BUN: blood urea nitrogen, individual animal [3, 10]: 44 mg/dL and 50 mg/dL and 58 mg/dL | BW: body weight, individual animal [3, 10]: 299 g and 271 g and 287 g | CCr: creatinine clearance, individual animal [3, 10]: 0.79 mL/min and 0.55 mL/min and 0.67 mL/min | Cr: blood creatinine, individual animal [3, 10]: 0.7 mg/dL and 0.8 mg/dL and 1.0 mg/dL | HW: heart weight, individual animal [3, 10]: 1.113 g and 1.018 g and 1.106 g | KW: kidney weight, individual animal [3, 10]: 1.364 g and 1.319 g and 1.368 g | RW: relative weight (heart), individual animal [3, 10]: 0.372% and 0.376% and 0.385% | RW: relative weight (kidney), individual animal [3, 10]: 0.456% and 0.487% and 0.477% | U-Pro.: urinary protein, individual animal [3, 10]: 46.9 mg/day and 40.5 mg/day and 108.7 mg/day

CCCCC(=O)N(Cc1ccc(C(=O)O)cc1)c1cc(C(=O)N2CCOCC2)ccc1N(C)C [Compound No. 7, 3-N-[[(4-Carboxyphenyl)methy)valeramido]-4-dimethylaminobenzoic acid morpholide]
number of dead animals (ICR mice): No dead animals was found

CCCCC(=O)N(Cc1ccc(C(=O)O)cc1)c1cc(C(=O)N2CCOCC2)ccc1C [Compound No. 8, 4-Methyl-3-N-[[4-(carboxyphenyl)methyl]valeramido]benzoic acid morpholide]
number of dead animals (ICR mice): No dead animals was found

CCCCC(=O)N(Cc1ccc(-c2ccccc2-c2nn[nH]n2)cc1)c1cc(C(=O)N2CCOCC2)ccc1N(C)C [Compound No. 11]
number of dead animals (ICR mice): No dead animals was found

CCCCC(=O)N(Cc1ccc(-c2nn[nH]n2)cc1)c1cc(C(=O)N2CCOCC2)ccc1N(C)C [Compound No. 13, 4-Dimethylamino-3-N-[[4-(1H-tetrazol-5-yl)phenylmethyl]valeramido]benzoic acid morpholide]
number of dead animals (ICR mice): No dead animals was found

CCOC(=O)[C@H](CCc1ccccc1)N[C@@H](C)C(=O)N1CCC[C@H]1C(=O)O [Enalapril]
blood pressure (in words) [1, 4]: lower blood pressure | renal dysfunction (in words) [1, 4]: improve the progress of renal dysfunction | adverse reactions (in words) [1]: dry cough or adverse reaction of acute renal failure
